≈ marks a conversion by molar mass, not a printed value. Where “and” joins values, the source holds several entries; their conditions need not be identical. Equal values may be shown once. Read-outs that look alike come from different tables or passages of the source.
Columns and labels:
[1] = test system: H37Rv strain of Mycobacterium tuberculosis; assay: microbe, parasite or virus in culture; format: cell-based
in vivo = assay: in vivo; set-up: species or system mice; settings: mouse
Procedure: (§1) Initially, analytical methods for determination of the compounds had been developed that allowed to carry out all the PK experiments, sec FIG. 29. Here is a brief description of the experiment: (1) plasma spiked with tested compounds and 10 uL of Terfenadine or plasma samples (200 uL) added; (2) ACN (2 mL) added to precipitate protein and spin at 2,500 rpm; (3) evaporate supernatant to dryness; (4) add 200 uL of the diluting solvent: methanol (with 0.1% of trifluoroacetic acid): ammonium acetate (80/20); (5) vortex, spin, and use supernatant; (6) run LC/MS/MS on Sciex API 3000.
Pilot PK study of the compounds 37, 59, and 109 in mice was conducted using a cassette dosing: all the three analogs were formulated together in saline at 1.5 mg/mL, and administered to mice simultaneously orally at 25 mg/kg, peritoneally at 6 mg/kg, and intravenously. […] Obtained data are presented on FIGS. 30, 31, and 32 (tested compounds were studied under the NCI′ indexation NSC) and summarized in Table 19.

[2] = test system: monkey kidney cells (Vero); assay: In vitro toxicity, Vero cells; format: cell-based; settings: Primates
Procedure: Twenty six compounds (including 37, 59 and 109) were tested in an in vitro model of toxicity using monkey kidney cells (Vero) and human cervical cancer cells (HeLa) using methods well known to those skilled in the art. The data from this toxicity testing and the MIC data were used to calculate a selectivity index (SI), the ratio of IC50:MIC (Table 15). Selectivity Indexes were ranging from 1.76 to 16.67.

[3] = format: in vitro ADME; settings: 6 h
Procedure: as §1
Biostability studies of the compounds in plasma were carried out using concentrations 1 and 15 mg/ml. The compounds were incubated for 1, 2, 3 & 6 hr at 37° C. (Table 18).

cells = assay: LD50 for selectivity index (Table 10); format: cell-based, Mycobacterium tuberculosis; settings: for SI (Selectivity Index): LD50 : MIC
Text: Table 10 lists MIC and LD50 data for selected compounds. […] Table 11 lists MIC data for purified substituted ethylene diamines in comparison to ethambutol (EMB).

[4] = Maximum tolerated dose, one-time gavage dose in mice; format: in vivo
Procedure: […] Each dose of each compound consisted of one group of 3 mice. Monitoring of the mice was done twice a day for the duration of the experiment. […] The MTD (mg/kg) is the highest dose that results in no lethality/tissue abnormality.
• 1. […] The compounds are dissolved in the appropriate concentration of ethanol in distilled water and administered in a volume of 0.2 ml per mouse. • 2. Observation of mice: Mice will be observed 4 and 6 hours post administration, then twice daily for one week. Survival and body weight of mice will be closely monitored throughout the study. • 3. […] Critical organs will be aseptically removed and observed; tissues from the liver, heart, and kidneys are extracted and placed into 10% formalin solution. These fixed tissues are sectioned and examined for abnormalities resulting from drug toxicity.

[5] = Toxicity, dose escalation study in mice
Procedure: Toxicity was assessed using a dose escalation study. This study was performed with ten C57BL/6 mice per candidate. Every two days, the mice were administered an increased concentration of the drug, and monitored for detrimental effects. The administration scheme was 50, 100, 200, 400, 600, 800 and 1000 mg/kg.

M. tuberculosis H37Rv [6] = assay: In vivo efficacy, mice infected i.v. with M. tuberculosis, CFU in spleen and lungs; set-up: species or system C57BL/6 mice
wild type of M.tb = assay: MIC, secondary screening, wild type; format: cell-based, Mycobacterium tuberculosis; settings: WT
M. tuberculosis H37Rv [7] = assay: MIC by BACTEC 460; format: cell-based, Mycobacterium tuberculosis; settings: Mycobacterium tuberculosis, H37RV, reference in head of Table 11; read-out: BACTEC MIC of EMB
[8] = test system: M. tuberculosis H37Rv (Pasteur); assay: Rapid in vivo model of TB, body weight of infected mice; set-up: species or system C3H female mice; settings: Rif (2 mg/kg)-EMB (10 mg/kg) combination
M. tuberculosis H37Rv [9] = assay: Standard chronic mouse model of tuberculosis, CFU in lung; format: in vivo, C57BL/6 female mice; settings: INH+RIF+EMB at 25, 20 and 100 mg/kg, wk 4
[10] = test system: H37Rv strain of Mycobacterium tuberculosis; settings: background statement; cited from earlier work
[11] = test system: RIF^R M. tuberculosis strain 2482; format: cell-based; settings: strain 2482
[12] = test system: RIF^R M. tuberculosis strain 3185; format: cell-based; settings: strain 3185
[13] = test system: RIF^R M. tuberculosis isolate 2482; assay: microbe, parasite or virus in culture; format: cell-based; settings: strain 2482
[14] = test system: RIF^R M. tuberculosis isolate 3185; assay: microbe, parasite or virus in culture; format: cell-based
[15] = Mycobacterium tuberculosis, H37RV, Table 10, from uM and MW, read-out: MIC
[16] = Mycobacterium tuberculosis, H37RV, Table 10, read-out: MIC
[17] = Mycobacterium tuberculosis, H37RV, Table 15, read-out: MIC
[18] = concentration at which 50% of the cells are killed
[19] = Mycobacterium tuberculosis, value in brackets, read-out: MIC (or uM)
[20] = Mycobacterium tuberculosis, EMB, RL241, Cmpd#59 as 2HCl salt, Cmpd#109 as 2CF3COOH salt, read-out: MIC

Structure (SMILES): CC1(C)C2CCC(CNCCNCC(c3ccccc3)c3ccccc3)[C@@H]1C2 (stereo partly drawn) [Compound 37, N-(2,2-Diphenylethyl)-N′-(−)-cis-(myrtanyl)ethane-1,2-diamine]
- MIC [1, 15]: 7.75 µg/mL
- MIC [1, 16]: 15.6 µM
- MIC [1, 17]: 7.8 µM
- AUC (in vivo; ip, 6 mg/kg): 1370 ng·h/mL
- Cmax (in vivo; ip, 6 mg/kg): 630 ng/mL
- Urine excretion (%) (in vivo; ip, 6 mg/kg): <0.01%
- bioavailability (in vivo; ip, 6 mg/kg): 72%
- half-life (in vivo; ip, 6 mg/kg): 4.9 h
- AUC (in vivo; iv, 3 mg/kg): 954 ng·h/mL
- Cmax (in vivo; iv, 3 mg/kg): 970 ng/mL
- Urine excretion (%) (in vivo; iv, 3 mg/kg): .71%
- clearance (in vivo; iv, 3 mg/kg): 58.8 mL/min/kg
- half-life (in vivo; iv, 3 mg/kg): 4.8 h
- AUC (in vivo; po, 25 mg/kg): 1600 ng·h/mL
- Cmax (in vivo; po, 25 mg/kg): 263 ng/mL
- bioavailability (in vivo; po, 25 mg/kg): 3.3%
- IC50 [2]: 32 µM
- Biostability in plasma (% ↓) ([3]; dog): stable
- Biostability in plasma (% ↓) ([3]; human): 20% ↓
- Biostability in plasma (% ↓) ([3]; mouse): stable
- Biostability in plasma (% ↓) ([3]; rat): 35% ↓
- SI (Selectivity Index) (cells): 2.048
- LD50 (cells; [18]): 32 µM
- LD50 (cells; from uM and MW): 15.872 µg/mL
- Day of death ([4]; 37 at 100 mg/kg (Table 16)): 1
- Mice ([4]; 37 at 100 mg/kg (Table 16), day 1): 2 to 4 h
- Mice ([4]; 37 at 100 mg/kg (Table 16), day 2): 2
- Mice ([4]; 37 at 100 mg/kg (Table 16), day 3): 2
- Mice ([4]; 37 at 100 mg/kg (Table 16), day 4): 2
- Mice ([4]; 37 at 100 mg/kg (Table 16), day 6): 2
- Mice ([4]; 37 at 100 mg/kg (Table 16), day 7): 2
- Mice ([4]; 37 at 100 mg/kg (Table 17), day 1): 3
- Mice ([4]; 37 at 100 mg/kg (Table 17), day 2): 3
- Mice ([4]; 37 at 100 mg/kg (Table 17), day 3): 3
- Mice ([4]; 37 at 100 mg/kg (Table 17), day 4): 3
- Mice ([4]; 37 at 100 mg/kg (Table 17), day 5): 3
- Mice ([4]; 37 at 100 mg/kg (Table 17), day 6): 3
- Mice ([4]; 37 at 100 mg/kg (Table 17), day 7): 3
- Mice ([4]; 37 at 300 mg/kg, day 1): 3
- Mice ([4]; 37 at 300 mg/kg, day 2): 3
- Mice ([4]; 37 at 300 mg/kg, day 3): 3
- Mice ([4]; 37 at 300 mg/kg, day 4): 3
- Mice ([4]; 37 at 300 mg/kg, day 5): 3
- Mice ([4]; 37 at 300 mg/kg, day 6): 3
- Mice ([4]; 37 at 300 mg/kg, day 7): 3
- changes in organs ([4]; mice surviving one week): No visible changes in organs
- fatal dose ([5]; C57BL/6, mouse, in vivo, 2 days): 100 mg/kg
- toxic dose ([5]; dose escalation): 100 mg/kg

Structure (SMILES): C[C@@H]1[C@H]2C[C@@H](C[C@H]1NCCNC1CCCCCCC1)C2(C)C [Compound 59, N-(Cyclooctyl)-N′-(1R, 2R, 3R, 5S)-(−)-isopinocampheylethane-1,2-diamine]
- MIC [1, 15]: 6.66 µg/mL
- MIC [1, 16]: 15.6 µM
- MIC [1, 17]: 15.6 µM
- PK profiling (AUC, Cmax) (in vivo): relatively poor PK profiling
- AUC (in vivo; ip, 6 mg/kg): 272 ng·h/mL
- Cmax (in vivo; ip, 6 mg/kg): 217 ng/mL
- Urine excretion (%) (in vivo; ip, 6 mg/kg): <0.01%
- bioavailability (in vivo; ip, 6 mg/kg): 35%
- half-life (in vivo; ip, 6 mg/kg): 9.7 h
- AUC (in vivo; iv, 3 mg/kg): 384 ng·h/mL
- Cmax (in vivo; iv, 3 mg/kg): 296 ng/mL
- Urine excretion (%) (in vivo; iv, 3 mg/kg): 1.9%
- clearance (in vivo; iv, 3 mg/kg): 134 mL/min/kg
- half-life (in vivo; iv, 3 mg/kg): 6.4 h
- AUC (in vivo; po, 25 mg/kg): 169 ng·h/mL
- Cmax (in vivo; po, 25 mg/kg): 28.7 ng/mL
- bioavailability (in vivo; po, 25 mg/kg): 0.9%
- IC50 [2]: 36 µM
- Biostability in plasma (% ↓) ([3]; dog): stable
- Biostability in plasma (% ↓) ([3]; human): stable
- Biostability in plasma (% ↓) ([3]; mouse): stable
- Biostability in plasma (% ↓) ([3]; rat): stable
- anti-tuberculosis activity compared with EMB (M. tuberculosis H37Rv [6]; 10 mg/kg, B6 mice, 5×10^5 CFU, chemotherapy from day 20): comparable to that of EMB at 100 mg/kg
- MIC (wild type of M.tb; [19]): 0.13 µM
- MIC (wild type of M.tb; [20]): 0.05 µg/mL
- SI (Selectivity Index) (cells): 2.048
- LD50 (cells; [18]): 32 µM
- LD50 (cells; from uM and MW): 13.632 µg/mL
- tolerated dose ([5]; C57BL/6, mouse, in vivo): 1000 mg/kg

Structure (SMILES): CC[C@@H](CO)NCCN[C@@H](CC)CO [EMB, Ethambutol, reference compound]
- MIC (M. tuberculosis H37Rv [7]): 2.5 µg/mL
- body weight of infected mice [8]: No improvement
- CFU in lung (M. tuberculosis H37Rv [9]): 3.7 log10CFU
- Minimum Inhibition Concentration (MIC) [10]: about 5 μg/ml
- MIC [1]: 8.37 µM and 7.25 µM
- MIC ([1]; Mycobacterium tuberculosis, H37RV, read-out: MIC): 7.19 µM
- decrease of load of bacteria in organs (M. tuberculosis H37Rv [6]; during 4-6 weeks of chemotherapy): 1.0-2.0 logs
- MIC (wild type of M.tb; [19]): 11.1 µM
- MIC (wild type of M.tb; [20]): 3.12 µg/mL
- MIC (wild type of M.tb; EMB, RL241, Cmpd#59 as 2HCl salt, Cmpd#109 as 2CF3COOH salt): 1.6 to 1.8 µg/mL
- interaction of 0.5 MIC ethambutol with rifampicin [11]: did not show any additive or synergistic activity
- interaction of 0.5 MIC ethambutol with rifampicin [12]: synergy was not observed
- concentration to which the strain was susceptible [13]: 2.5 mg/L
- MIC ([14]; Mycobacterium tuberculosis, read-out: MIC (BACTEC)): 2.5 µg/mL (≈ 12.2 µM)
- concentration to which the strain was susceptible ([14]; strain 3185): 2.5 mg/L

Source: patent publication US8202910B2 (Sequella, Inc., priority 2006, dated 2012)
